Source: patent US8304394B2, “Low side effect pharmaceutical composition containing isoniazid” (priority 2008, dated 2012)
Read-outs that look alike come from different tables or passages of the source.

Experiments:
[1] = biological target: T1, CYP2E1 (Homo sapiens, UniProt P05181); assay: Chlorzoxazone hydroxylation inhibition (6-OH-CZX by LC/MS/MS); conditions: human, microsomes, pH 7.4
[2] = biological target: T1, CYP2E1; assay: in vitro; conditions: for inhibition at 40 min, 33 µM: pH 7.4; for inhibition at 40 min, 16.5 µM / inhibition at 40 min, 66 µM: pH 7.4, Inhibition of CYP 2E1 (%); for inhibition at 40 min, 16.5 µM: tested concentration 16.5 μM; for inhibition at 40 min, 66 µM: tested concentration 66 μM
[3] = biological target: T2, human liver microsomal cytochrome P450 2E1 (CYP2E1) (Homo sapiens, UniProt P05181); assay: Chlorzoxazone hydroxylation inhibition (6-OH-CZX by LC/MS/MS)
T2 sequence (P05181 whole entry): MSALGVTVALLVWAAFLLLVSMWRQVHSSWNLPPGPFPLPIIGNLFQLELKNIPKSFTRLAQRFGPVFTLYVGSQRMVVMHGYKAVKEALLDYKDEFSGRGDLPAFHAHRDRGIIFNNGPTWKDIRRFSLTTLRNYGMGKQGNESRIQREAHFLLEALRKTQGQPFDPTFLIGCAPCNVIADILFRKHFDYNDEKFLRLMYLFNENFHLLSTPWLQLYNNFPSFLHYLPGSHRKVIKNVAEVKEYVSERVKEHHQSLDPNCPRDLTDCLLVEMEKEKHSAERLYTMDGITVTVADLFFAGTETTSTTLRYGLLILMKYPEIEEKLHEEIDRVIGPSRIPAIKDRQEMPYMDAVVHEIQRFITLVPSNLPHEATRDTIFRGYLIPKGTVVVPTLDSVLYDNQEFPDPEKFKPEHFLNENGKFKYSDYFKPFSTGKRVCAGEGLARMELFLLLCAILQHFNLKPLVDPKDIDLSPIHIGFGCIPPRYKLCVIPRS

[4] = biological target: T2, human liver microsomal cytochrome P450 2E1 (CYP2E1); conditions: microsomes, 33 µM
[5] = biological target: T3, cDNA expressed human cytochrome P450 2E1 (CYP2E1) (Homo sapiens, UniProt P05181)
T3 sequence (P05181 whole entry): as above

[6] = biological target: T3, cDNA expressed human cytochrome P450 2E1 (CYP2E1); conditions: 40 min, pH 7.4

T1 sequence (P05181 whole entry): as above

Row | Molecule | inhibition at 40 min, 33 µM [2] [%] | inhibition at 40 min, 16.5 µM [2] [%] | inhibition at 40 min, 66 µM [2] [%] | Inhibition of CYP 2E1 (%) ([3]; tested concentration 16.5 μM) | Inhibition of CYP 2E1 (%) ([3]; tested concentration 33 μM) | other results
1 | O=C(CCc1ccc(O)cc1)c1c(O)cc(O)cc1O [Phloretin] | 54.7 ± 2.84 | 42 ± 3.63 | 66.8 ± 4.79 |  |  | inhibition at 30 min, 16.5 µM [1]: 29.6 ± 3.21%; inhibition at 30 min, 33 µM [1]: 39.8 ± 3.28%; inhibition at 30 min, 66 µM [1]: 50.9 ± 2.09%
2 | O=C(O[C@@H]1Cc2c(O)cc(O)cc2O[C@@H]1c1cc(O)c(O)c(O)c1)c1cc(O)c(O)c(O)c1 [(−)-Epigallocetechin-3-gallate] |  |  |  | 50.19 ± 1.89 | 60.53 ± 2.06 | Inhibition of CYP 2E1 (%) ([3]; tested concentration 66 μM): 72.16 ± 1.02%
3 | O=c1c(-c2ccc(O)cc2)coc2c([C@@H]3O[C@H](CO)[C@@H](O)[C@H](O)[C@H]3O)c(O)ccc12 [Puerarin] | -4.64 ± 3.47 | 0.43 ± 2.31 | -12.9 ± 2.75 |  |  | 
4 | O=C1C[C@@H](c2ccc(O)cc2)Oc2cc(O)cc(O)c21 [Naringenin] | 36.8 ± 3.97 | 25.1 ± 7.6 | 41.8 ± 3.51 |  |  | inhibition at 30 min, 16.5 µM [1]: 19.5 ± 2.02%; inhibition at 30 min, 33 µM [1]: 28.4 ± 2.21%; inhibition at 30 min, 66 µM [1]: 45.2 ± 4.43%
5 | CC(Cc1ccc(O)c(O)c1)C(C)Cc1ccc(O)c(O)c1 (stereo not drawn) [Nordihydroguaiaretic acid] | 92.4 ± 2.2 | 76.5 ± 3.86 | 97.99 ± 0.66 |  |  | inhibition at 30 min, 16.5 µM [1]: 49.8 ± 2.42%; inhibition at 30 min, 66 µM [1]: 96.98 ± 0.19%; Inhibition of CYP 2E1 (%) [4]: 67.68. ± 2.24%
6 | COc1ccc([C@@H]2CC(=O)c3c(O)cc(O[C@@H]4O[C@H](CO)[C@@H](O)[C@H](O)[C@H]4O[C@@H]4O[C@@H](C)[C@H](O)[C@@H](O)[C@H]4O)cc3O2)cc1O [Neohesperidin] |  |  |  | 42.81 ± 1.75 | 48.96 ± 2.37 | Inhibition of CYP 2E1 (%) ([3]; tested concentration 66 μM): 58.70 ± 1.06%
7 | COc1ccc([C@@H]2CC(=O)c3c(O)cc(O)cc3O2)cc1O [Hesperetin] | 43.3 ± 0.82 | 32.1 ± 5.8 | 54.8 ± 1.37 |  |  | inhibition at 30 min, 16.5 µM [1]: 25.7 ± 2.45%; inhibition at 30 min, 33 µM [1]: 34.3 ± 2.03%; inhibition at 30 min, 66 µM [1]: 44.6 ± 2.35%
8 | O=C(O)c1ccc(O)c(O)c1 [Protocatechuic acid] | 19.9 ± 8.95 | 25.7 ± 12.7 | 22.8 ± 4.07 |  |  | 
9 | CCCCCCCCCCCC1=C(O)C(=O)C=C(O)C1=O [Embelin] | 12.3 ± 10.2 | 5.95 ± 7.48 | 13.5 ± 11.6 |  |  | 
10 | COc1ccc([C@@H]2CC(=O)c3c(O)cc(O[C@@H]4O[C@H](CO[C@@H]5O[C@@H](C)[C@H](O)[C@@H](O)[C@H]5O)[C@@H](O)[C@H](O)[C@H]4O)cc3O2)cc1O [Hesperidin] |  |  |  | 45.32 ± 1.57 | 50.91 ± 2.81 | Inhibition of CYP 2E1 (%) ([3]; tested concentration 66 μM): 58.57 ± 3.78%
11 | O=c1cc(-c2ccccc2)oc2ccc3ccccc3c12 [β-naphthoflavone] |  |  |  |  |  | Inhibition of CYP 2E1 (%) ([5]; tested concentration 16.5 μM): 6.52 ± 6.64%; Inhibition of CYP 2E1 (%) ([5]; tested concentration 33 μM): 16.83 ± 0.96%; Inhibition of CYP 2E1 (%) ([5]; tested concentration 66 μM): 15.40 ± 12.94%
12 | COc1c(O)cc2oc(Oc3ccc(O)cc3)cc(=O)c2c1O [Capillarisin] |  |  |  | 32.89 ± 2.46 | 46.22 ± 2.65 | Inhibition of CYP 2E1 (%) ([5]; tested concentration 16.5 μM): 49.05 ± 5.18%; Inhibition of CYP 2E1 (%) ([5]; tested concentration 33 μM): 60.54 ± 5.91%; Inhibition of CYP 2E1 (%) ([5]; tested concentration 66 μM): 76.12 ± 1.89%; Inhibition of CYP 2E1 (%) ([3]; tested concentration 66 μM): 57.31 ± 1.31%
13 | Oc1cc(O)c2c(c1)O[C@H](c1ccc(O)c(O)c1)[C@@H](O)C2 [(+)-Catechin] |  |  |  |  |  | Inhibition of CYP 2E1 (%) ([5]; tested concentration 16.5 μM): 41.53 ± 7.62%; Inhibition of CYP 2E1 (%) ([5]; tested concentration 33 μM): 33.83 ± 8.76%; Inhibition of CYP 2E1 (%) ([5]; tested concentration 66 μM): 16.45 ± 9.67%
14 | O=c1c(O)c(-c2ccc(O)cc2)oc2cc(O)cc(O)c12 [Kaempferol] | 70 ± 3.75 | 71.9 ± 1.14 | 70.6 ± 2.53 |  |  | inhibition at 30 min, 16.5 µM [1]: 66.5 ± 1.71%; inhibition at 30 min, 33 µM [1]: 74.74 ± 0.6%; inhibition at 30 min, 66 µM [1]: 79.25 ± 0.27%
15 | Oc1cc(O)c2c(c1)O[C@H](c1ccc(O)c(O)c1)[C@H](O)C2 [(−)-Epicatechin] |  |  |  |  |  | Inhibition of CYP 2E1 (%) ([5]; tested concentration 16.5 μM): 18.27 ± 9.34%; Inhibition of CYP 2E1 (%) ([5]; tested concentration 33 μM): 15.02 ± 5.50%; Inhibition of CYP 2E1 (%) ([5]; tested concentration 66 μM): 2.57 ± 11.60%
16 | O=c1cc(-c2ccc(O)c(O)c2)oc2cc(O[C@@H]3O[C@H](CO)[C@@H](O)[C@H](O)[C@H]3O)cc(O)c12 [Luteolin-7-Glucoside] |  |  |  | 42.96 ± 5.10 | 55.87 ± 0.67 | Inhibition of CYP 2E1 (%) ([3]; tested concentration 66 μM): 60.26 ± 1.11%
17 | C=C(C)C1CC=C(C)CC1 (single isomer, unassigned; (+)) [(+)-Limonene] |  |  |  | 13.77 ± 1.96 | 38.05 ± 1.95 | Inhibition of CYP 2E1 (%) ([3]; tested concentration 66 μM): 63.64 ± 2.74%
18 | CCCCC[C@H](O)CC(=O)CCc1ccc(O)c(OC)c1 [6-Gingerol] |  |  |  |  |  | Inhibition of CYP 2E1 (%) ([5]; tested concentration 33 μM): 39.83 ± 2.32%
19 | O=C1c2c(O)cc(O)cc2O[C@H](c2ccc(O)c(O)c2)[C@H]1O [(+)-Taxifolin] |  | 22.6 ± 11.7 | 34.5 ± 3.47 |  |  | 
20 | O=C(O)/C=C/c1ccccc1 [trans-Cinnamic acid] | 4.66 ± 6.5 | 5.71 ± 10.5 | 7.1 ± 6.95 |  |  | 
21 | COc1c(O)cc(O)c2c(=O)cc(-c3ccccc3)oc12 [Wongonin] |  |  |  |  |  | Inhibition of CYP 2E1 (%) ([5]; tested concentration 33 μM): 21.87 ± 1.90%
22 | Oc1cc(O)c2c(c1)O[C@H](c1cc(O)c(O)c(O)c1)[C@H](O)C2 [(−)-Epigallocatechin] |  |  |  | 38.95 ± 1.92 | 36.40 ± 2.18 | Inhibition of CYP 2E1 (%) ([3]; tested concentration 66 μM): 57.08 ± 1.85%
23 | O=C(O)c1cc(O)c(O)c(O)c1 [gallic acid] | 42.7 ± 7.36 | 35.6 ± 10 | 48.2 ± 4.2 |  |  | inhibition at 30 min, 16.5 µM [1]: 10.5 ± 1.12%; inhibition at 30 min, 33 µM [1]: 18.8 ± 2.03%; inhibition at 30 min, 66 µM [1]: 28 ± 1.56%
24 | O=c1c(-c2ccc(O)cc2)coc2cc(O)ccc12 [Daidzein] |  |  |  |  |  | inhibition at 30 min, 16.5 µM [1]: 73.5 ± 1.74%; inhibition at 30 min, 33 µM [1]: 76.3 ± 2.28%; inhibition at 30 min, 66 µM [1]: 86.8 ± 1.04%
25 | O=C(CCc1ccc(O)cc1)c1c(O)cc(O)cc1O[C@@H]1O[C@H](CO)[C@@H](O)[C@H](O)[C@H]1O [Phloridzin] | 3.76 ± 3.58 | 1.25 ± 7.9 | 1.42 ± 9.28 |  |  | 
26 | O=c1ccc2ccc(O)cc2o1 [Umbelliferone] |  | -280 ± 19.5 |  |  |  | Inhibition of CYP 2E1 (%) ([6]; 33 µM): −571.97 ± 117.56%; Inhibition of CYP 2E1 (%) ([6]; 66 µM): −1081.56 ± 168.00%
27 | Oc1cc(O)c2c(c1)O[C@@H](c1ccc(O)c(O)c1)[C@@H](O)C2 [(+)-Epicatechin] |  |  |  | 66.71 ± 1.79 | 52.32 ± 1.59 | 
28 | (−)-Epicatechin-3-gallate |  |  |  | 30.31 ± 1.27 | 34.84 ± 1.72 | Inhibition of CYP 2E1 (%) ([3]; tested concentration 66 μM): 42.92 ± 0.65%
